Results taken from patent US7799565B2, “Lipid encapsulated interfering RNA” (Protiva Biotherapeutics, Inc., priority 2004, dated 2010).

Tests used:
luciferase = assay: In vitro silencing of luciferase in stably transfected Neuro2A cells; format: cell-based; details: 48 hours; for luciferase expression relative to untreated control: cationic lipid incorporated in SNALP with anti-luciferase siRNA
Method: In vitro Transfection: Cells were cultured in MEM (Invitrogen) containing 10% fetal bovine serum (FBS) (CanSera) and 0.25 mg/mL G418 (Invitrogen). Neuro2A-G cells (Neuro2A cells stably transfected to express luciferase [R. E. Kingston. in Current Protocols in Molecular Biology, Vol. 2, pp. 9.1.4-9.1.9, John Wiley & Sons, Inc. (1997)]) were plated at a concentration of 4×10^4 cells per well in 24-well plates and grown overnight. Cells were treated with SNALP at doses of 0.0625-1.0 μg/mL nucleic acid (AntiLuc Active or Mismatch Control) and incubated for 48 hours at 37° C. and 5% CO2. Cells were then washed with PBS and lysed with 200 μL 250 mM sodium phosphate containing 0.1% Triton X-100. The luciferase activity for each well was determined using Luciferase Reagent (Promega) and a standard luciferase protein (Roche). The luminescence for each was measured using a Berthold MicroLumatPlus LB96V plate luminometer. The resulting luciferase activity was then normalized for the amount of protein using the Micro BCA assay kit (Pierce). Luciferase knockdown relative to a control was then determined for each system.
This example describes experiments comparing expression of nucleic acids following in vitro transfection of Neuro2A cells with SNALP comprising: (1) DODAC, DODMA, or DLinDMA; (2) PEG-C-DMA; and (3) an siRNA duplex directed against luciferase encapsulated in the SNALP (i.e., siRNA comprising the following sequence: […] and targeting the DNA sequence complementary to: […]). Neuro2A cells were stably transfected with a plasmid encoding luciferase under the control of the CMV promoter (pLO55). The stably transfected cells were then transfected with SNALP comprising: 15, 20, 25, 30, 35, or 40% of DODAC, DODMA, or DLinDMA; 2% PEG-C-DMA, and an siRNA duplex directed against luciferase encapsulated in the SNALP. Luciferase protein expression was measured 48 hours after transfection with SNALP.
The ability of SNALP containing each of the four cationic lipids (i.e., DSDMA, DODMA, DLinDMA, and DLenDMA) to effect gene silencing in stably transfected Neuro2A cells was evaluated. Neuro2A cells stably transfected to express the luciferase were treated with SNALP containing anti-luciferase siRNA for 48 hours. Gene-silencing efficiency was evaluated by comparing the remaining luciferase activity in these cells to that remaining in cells treated with control SNALP containing mismatch siRNA.

[1] = 31P-NMR phase transition of cationic lipid / DPPS vesicles; format: physicochemical; details: series DSDMA, DODMA, DLinDMA, DLenDMA
Method: ^31P Nuclear Magnetic Resonance Spectroscopy: Multilamellar vesicles (MLV) were prepared comprising DPPS and cationic lipid at a molar ratio of 1:1. This was accomplished by drying the lipids from chloroform solution, transferring to 10 mm NMR tubes, and hydrating in 1.5 mL of 10 mM sodium citrate, pH 4. Free induction decays (FIDs) corresponding to 1000 scans were obtained with a 3.0 μs, 60 o pulse with a 1 s interpulse delay and a spectral width of 25000 Hz. A gated two-level proton decoupling was used to ensure sufficient decoupling with minimum sample heating. An exponential multiplication corresponding to 50 Hz of line broadening was applied to the FIDs prior to Fourier transformation. The sample temperature (+/−1° C.) was regulated using a Bruker B-VT1000 variable temperature unit. Chemical shifts were referenced to 85% phosphoric acid as an external standard.

[2] = SNALP with anti-luciferase siRNA, versus control SNALP containing mismatch siRNA

| Structure (SMILES) | luciferase expression relative to untreated control (luciferase) | gene-silencing activity (luciferase; [2]) | knockdown in gene expression (luciferase; [2]) | phase transition temperature [1] |
| --- | --- | --- | --- | --- |
| CCCCCCCCCCCCCCCCCC[N+](C)(C)CCCCCCCCCCCCCCCCCC [DODMA, dioctadecyldimethylammonium, reference compound] | 54% | – | – | – |
| CCCCCCCCCCCCCCCCCC[N+](C)(C)CCCCCCCCCCCCCCCCCC [DSDMA, Distearyldimethylammonium, reference compound] | – | no activity | – | – |
| CC/C=C\C/C=C\C/C=C\CCCCCCCCOCC(CN(C)C)OCCCCCCCC/C=C\C/C=C\C/C=C\CC (stereo not shown) [DLenDMA, 1,2-Dilinolenyloxy-N,N-dimethylaminopropane] | 32% | slightly less efficient than those containing DLinDMA | – | – |
| CCCCC/C=C\C/C=C\CCCCCCCCOCC(CN(C)C)OCCCCCCCC/C=C\C/C=C\CCCCC (stereo not shown) [DLinDMA, 1,2-DiLinoleyloxy-N,N-dimethylaminopropane] | 21% | – | 80% | lowest phase transition temperature in the series |
